From ChEMBL document CHEMBL1201862, “PubChem BioAssay data set” (2004) come the findings set out here.

Structures are written as SMILES.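 Compound exposure: 48 hours, 5 concentrations, 96-well plates. Abbreviation: GI50, concentration required for 50% inhibition of growth.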 The source made the active and inactive calls. Rule as the data show it: active = GI50 up to about 1.1 µM and inactive = higher. Peptide text beside a SMILES is read from it. * marks the point of attachment. X27 = Clc1c(Cl)c(Cl)c(O*)c(Cl)c1Cl; Boc = CC(C)(C)OC(=O)*; OBn = c1ccc(CO*)cc1; Bn = c1ccc(C*)cc1

Among the test systems are 786-0; A549; ACHN; CAKI-1; COLO 205; DU-145; HCT-116; HL-60; IGROV-1; K562; MCF7; MDA-MB-435; MOLT-4; NCI-H460; OVCAR-5; SK-OV-3; U-251; A498; BT-549; NCI-H522.
What all share (test): NCI tumour cell line growth inhibition, 48 h

Take `O=c1[nH]c(=O)n(C2CC(O)C(COP(=O)(OCC(Cl)(Cl)Cl)OCC(Cl)(Cl)Cl)O2)cc1F` (stereo not given): the GI50 in the assay with 786-0 was 0.245 µM (active); in the assay with A549, 0.212 µM (active); in the assay with ACHN it was 0.298 µM (active); in the assay on CAKI-1 it was 0.3 µM (active); in the assay with COLO 205 it was 23.5 µM (inactive); with DU-145, 2.81 µM (inactive). Moreover, the GI50 was 2.21 µM (inactive) in the assay on HCT-116; 5.85 µM (inactive) in the assay with HL-60; > 65.6 µM (inactive) with IGROV-1; 4.11 µM (inactive) in the assay on K562; 0.0619 µM (active) in the assay with MCF7; > 86.3 µM (inactive) in the assay with MDA-MB-435. The GI50 in the assay on MOLT-4 is 1.1 µM (active); with NCI-H460 it was < 0.0226 µM (active); with OVCAR-5, > 94.2 µM (inactive); in the assay with SK-OV-3, > 48.6 µM (inactive); in the assay with U-251, 2.95 µM (inactive).
In the case of `COc1ccc(C2C3=C(CCCC3=O)N(c3ccccc3)C3=C2C(=O)CCC3)cc1`, the GI50 was 45.6 µM (inactive) with 786-0; > 100 µM (inactive) in the assay with A498; > 100 µM (inactive) with A549; > 100 µM (inactive) in the assay on ACHN; 29.4 µM (inactive) with BT-549; > 100 µM (inactive) in the assay with CAKI-1. The GI50 with HL-60 is > 100 µM (inactive); with IGROV-1 it was > 100 µM (inactive); with K562 it was > 100 µM (inactive); with MCF7, 43.8 µM (inactive); with MOLT-4 it was > 100 µM (inactive); with NCI-H460, > 100 µM (inactive). Moreover, the GI50 is > 100 µM (inactive) in the assay on OVCAR-5, 50.6 µM (inactive) in the assay with SK-OV-3 and 75.7 µM (inactive) with U-251.
As for `O=C(NCc1ccccc1)C1C(=O)C(=O)N(Cc2ccccc2)C1=O` (stereo not given), the GI50 in the assay with 786-0 is > 100 µM (inactive); with A498, > 100 µM (inactive); in the assay on A549, > 100 µM (inactive); with ACHN, > 100 µM (inactive); in the assay with CAKI-1, 0.0113 µM (active); in the assay on COLO 205, > 100 µM (inactive). Moreover, the GI50 with HCT-116, in the assay with HL-60, in the assay on IGROV-1, in the assay on K562, in the assay on MOLT-4 and in the assay with NCI-H460 was > 100 µM (inactive) each time. In addition, the GI50 in the assay on NCI-H522, in the assay on OVCAR-5, with SK-OV-3 and with U-251 was > 100 µM (inactive) throughout.
As to `O=C(N/N=C\c1cccs1)c1ccncc1`, the GI50 in the assay on 786-0, with A498, in the assay on A549, in the assay on ACHN, in the assay with BT-549 and in the assay on CAKI-1 was > 100 µM (inactive) in each case. Further, the GI50 in the assay on COLO 205, with HCT-116, in the assay with HL-60, with IGROV-1, in the assay with K562 and in the assay on MCF7 was > 100 µM (inactive) throughout. For the same compound, the GI50 in the assay on MDA-MB-435, in the assay with MOLT-4, in the assay on NCI-H460, in the assay on NCI-H522, with OVCAR-5 and in the assay with SK-OV-3 was > 100 µM (inactive) in each case. Moreover, in the assay on U-251, the GI50 is > 100 µM (inactive).
With `COc1ccc(C2=Nc3ccccc3SC(C)C2)cc1` (stereo not given), the GI50 with 786-0, with A498, with A549, with ACHN, with CAKI-1 and in the assay with COLO 205 was > 100 µM (inactive) in each case. The GI50 was 18 µM (inactive) in the assay with HCT-116; 46 µM (inactive) in the assay on HL-60; > 100 µM (inactive) with IGROV-1; 24.4 µM (inactive) in the assay on K562; 49.8 µM (inactive) in the assay with MOLT-4; > 100 µM (inactive) in the assay with NCI-H460. Besides, the GI50 in the assay on NCI-H522 is > 100 µM (inactive); with OVCAR-5 it was > 100 µM (inactive); in the assay on SK-OV-3, > 100 µM (inactive); with U-251, 92.7 µM (inactive).
In the case of `O=C(OC[C@H]1C[C@H]2C(=O)OCCC[C@H]2O1)c1ccccc1`, the GI50 in the assay with 786-0, with A498, in the assay on A549, with ACHN, in the assay on CAKI-1 and in the assay on COLO 205 was > 100 µM (inactive) each time. The GI50 in the assay with DU-145, in the assay with HCT-116, in the assay with HL-60, with IGROV-1, in the assay with K562 and in the assay with MCF7 was > 100 µM (inactive) throughout. The GI50 in the assay with MDA-MB-435, in the assay on MOLT-4, in the assay with NCI-H460, in the assay on NCI-H522, in the assay on OVCAR-5 and with SK-OV-3 was > 100 µM (inactive) throughout. The GI50 with U-251 is > 100 µM (inactive).
Turning to `NNC(=O)CNC(=O)CSc1nnc(COc2ccc(Cl)cc2)n1-c1ccccc1`, the GI50 in the assay with 786-0, in the assay on A498, with A549, with ACHN, with CAKI-1 and with COLO 205 was > 100 µM (inactive) in each case. In addition, the GI50 in the assay with DU-145, in the assay with HCT-116, in the assay on HL-60, with IGROV-1, in the assay with K562 and in the assay with MCF7 was > 100 µM (inactive) in each case. Also, the GI50 in the assay on MDA-MB-435 is > 100 µM (inactive); with MOLT-4, > 100 µM (inactive); in the assay on NCI-H460 it was > 100 µM (inactive); with NCI-H522, 41.8 µM (inactive); in the assay on OVCAR-5, > 100 µM (inactive); with SK-OV-3, > 100 µM (inactive). In addition, in the assay on U-251, the GI50 was > 100 µM (inactive).
For `Cc1nc2cccc(F)c2c(=O)n1-c1nnc(C(F)(F)F)s1`, the GI50 in the assay with 786-0, in the assay on A549, in the assay on ACHN, in the assay with CAKI-1, in the assay on COLO 205 and in the assay with DU-145 was > 10 µM (inactive) throughout. Moreover, the GI50 in the assay with HCT-116, in the assay with HL-60, with IGROV-1, with K562, in the assay with MCF7 and in the assay on MDA-MB-435 was > 10 µM (inactive) throughout. The GI50 in the assay with MOLT-4, in the assay with NCI-H460, in the assay on NCI-H522, in the assay on OVCAR-5, with SK-OV-3 and in the assay with U-251 was > 10 µM (inactive) each time.
Regarding `CC(C)CC(NC(=O)C(CCC(=O)OCc1ccccc1)NC(=O)OC(C)(C)C)C(=O)NC(COCc1ccccc1)C(=O)NC(Cc1ccccc1)C(=O)Oc1c(Cl)c(Cl)c(Cl)c(Cl)c1Cl` (stereo not given) (Boc-E(OBn)LS(Bn)F-X27; configuration not given here), the GI50 in the assay with 786-0 is 35.7 µM (inactive); with A549, 28.6 µM (inactive); in the assay on ACHN it was 23.4 µM (inactive); in the assay on CAKI-1, 21.2 µM (inactive); in the assay with COLO 205, 26.2 µM (inactive); with DU-145 it was 35.5 µM (inactive). Moreover, the GI50 in the assay with HCT-116 is 16.6 µM (inactive); in the assay on IGROV-1, 20.7 µM (inactive); in the assay with MCF7, 22.6 µM (inactive); with MDA-MB-435, 26.2 µM (inactive); in the assay with MOLT-4, 22.6 µM (inactive); in the assay on NCI-H460, 27.2 µM (inactive). Further, the GI50 in the assay on NCI-H522 was 21.9 µM (inactive); in the assay on OVCAR-5, 25.3 µM (inactive); in the assay on SK-OV-3, 28.5 µM (inactive); in the assay with U-251, 18.5 µM (inactive).
As to `CCOc1ccc(N/C(=C(/C(Cl)=C(/Cl)N(CC)CC)[N+](=O)[O-])n2nnc3ccccc32)cc1`, the GI50 in the assay with 786-0 is 17.2 µM (inactive); in the assay with A498 it was 15 µM (inactive); with A549, 34.4 µM (inactive); in the assay on ACHN it was 20 µM (inactive); with BT-549, 19.8 µM (inactive); in the assay with CAKI-1, 13.4 µM (inactive). Also, the GI50 in the assay on COLO 205 was 21.6 µM (inactive); in the assay on HCT-116 it was 16.7 µM (inactive); with K562, > 100 µM (inactive); in the assay on MCF7, 29.9 µM (inactive); in the assay on MDA-MB-435, 19.5 µM (inactive); in the assay on MOLT-4, > 100 µM (inactive). Besides, the GI50 in the assay with NCI-H460 was 56.5 µM (inactive); with OVCAR-5 it was 33.3 µM (inactive); in the assay with SK-OV-3 it was 56.1 µM (inactive); in the assay with U-251, 14 µM (inactive).
With `COc1ccc(-c2c(C(C)=O)c(-c3ccccc3)n(C3OC(COC(C)=O)C(OC(C)=O)C(OC(C)=O)C3OC(C)=O)c(=S)c2C#N)cc1` (stereo not given), the GI50 with 786-0, with A498, in the assay on A549, with ACHN, with CAKI-1 and with COLO 205 was > 100 µM (inactive) each time. Further, the GI50 in the assay with DU-145, with HCT-116, with HL-60, with IGROV-1, in the assay with K562 and in the assay on MCF7 was > 100 µM (inactive) throughout. In addition, the GI50 with MDA-MB-435, in the assay with MOLT-4, in the assay with NCI-H460, with NCI-H522, in the assay with OVCAR-5 and in the assay with SK-OV-3 was > 100 µM (inactive) each time. Also, the GI50 in the assay on U-251 is > 100 µM (inactive).
